Holding throughout (test): Recombinant cathepsin inhibition, gel-based competition with GB123 probe
Holding throughout (assay type): biochemical

Experiment [1] has as its target T1, Recombinant human cathepsin L (Homo sapiens, UniProt P07711).
T1 construct: made in house
The method, then:
(§1) In-gel fluorescence analysis was used to detect the residual activity of the cathepsins by applying pan-cathepsin probe GB123 to detect the stable enzyme–probe complex. This approach is used for testing inhibition and selectivity.[37],[41]
(§2) Recombinant human cathepsin L (0.5 μM), cathepsin B (0.5 μM), cathepsin K (0.5 μM), and cathepsin S (0.5 μM) were pretreated with different concentrations of inhibitors (GD compounds, odanacatib) for 1 h in reaction buffer (50 mM acetate, 2 mM dithiothreitol (DTT), and 5 mM MgCl2, pH 5.5) at 37 °C. GB123 (1 μM) was added and incubated with samples for 60 min at 37 °C.[37],[41] The reaction was stopped by the addition of sample buffer 4× (40% glycerol, 0.2 M Tris/HCl pH 6.8, 20% β-mercaptoethanol, 12% SDS, and 0.4 mg/mL bromophenol blue). Samples were then boiled, separated on a 12.5% SDS gel, and scanned for fluorescence by a Typhoon scanner FLA 9500 at excitation and emission wavelengths of 635 and 670 nm for GB123.
(§3) graphs were generated in GraphPad Prism software.

For experiment [2], the target named is T2, Recombinant human cathepsin K (Homo sapiens, UniProt P43235).
T2 construct: made in house
T2 sequence (P43235 115-329): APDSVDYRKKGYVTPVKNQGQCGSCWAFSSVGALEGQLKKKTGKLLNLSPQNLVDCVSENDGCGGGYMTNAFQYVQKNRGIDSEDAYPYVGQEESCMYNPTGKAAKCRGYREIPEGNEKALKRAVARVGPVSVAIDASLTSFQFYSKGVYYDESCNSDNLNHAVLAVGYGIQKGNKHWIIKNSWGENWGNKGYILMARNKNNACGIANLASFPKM
As to conditions: for loss of potency compared to GD20: diastereomers of GD20 with D amino acids. As to the method:
as §1, §2, §3

Experiment [3] deals with T3, Recombinant human cathepsin B (Homo sapiens, UniProt P07858).
T3 construct: made in house
As to the method:
as §1, §2, §3

The mark [4] stands for this setting: Table S2, three independent competition gel-based experiments, read-out: CTSL (IC50).
The mark [5] stands for this setting: Table S2, three independent competition gel-based experiments, read-out: CTSK (IC50).
The mark [6] stands for this setting: Table S2, three independent competition gel-based experiments, read-out: CTSB (IC50).

Read-outs that look alike come from different tables or passages of the source.

T1 sequence (P07711 114-333): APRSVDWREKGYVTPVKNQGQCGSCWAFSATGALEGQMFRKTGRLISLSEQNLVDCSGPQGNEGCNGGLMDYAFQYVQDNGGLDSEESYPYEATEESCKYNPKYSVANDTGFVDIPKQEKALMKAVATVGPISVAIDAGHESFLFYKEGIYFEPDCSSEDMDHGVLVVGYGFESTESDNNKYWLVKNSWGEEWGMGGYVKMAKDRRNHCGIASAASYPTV

As to `Cc1cccc(C)c1C(=O)OCC(=O)[C@H](CCCCN)NC(=O)[C@H](Cc1ccccc1)NC(=O)OCc1ccccc1` [GB111-NH2, reference compound], the IC50 (usually the concentration needed to halve the response being measured) was determined as 0.25 ± 0.04 µM in experiment [1] (setting [4]), 4.4 ± 0.9 µM in experiment [2] (setting [5]) and 0.4 ± 0.06 µM in experiment [3] (setting [6]).

Turning to `Cc1cccc(C)c1C(=O)OCC(=O)CNC(=O)[C@H](CC(C)(C)F)N[C@@H](c1ccc(-c2ccc(NC(=O)OC(C)(C)C)cc2)cc1)C(F)(F)F` [GD6], the IC50 in experiment [1] (setting [4]) was above 5 µM; in experiment [2] (setting [5]), 1.6 ± 0.35 µM; in experiment [3] (setting [6]), 1.7 ± 0.35 µM.

Regarding `Cc1cccc(C)c1C(=O)OCC(=O)CNC(=O)[C@H](CC(C)C)N[C@@H](c1ccc(-c2ccc(S(C)(=O)=O)cc2)cc1)C(F)(F)F` [GD7], the IC50 in experiment [1] (setting [4]) is above 5 µM; in experiment [2] (setting [5]), 0.66 ± 0.01 µM; in experiment [3] (setting [6]), 3.6 ± 0.03 µM.

With `CC(C)C[C@H](N[C@@H](c1ccc(-c2ccc(S(C)(=O)=O)cc2)cc1)C(F)(F)F)C(=O)NCC(=O)COc1c(F)c(F)cc(F)c1F` [GD8], the IC50 in experiment [1] (setting [4]) was determined as 3.6 ± 0.04 µM; in experiment [2] (setting [5]), 0.68 ± 0.08 µM; in experiment [3] (setting [6]) it was 2.2 ± 0.35 µM.

Turning to `CC(C)C[C@H](N[C@@H](c1ccc(-c2ccc(S(C)(=O)=O)cc2)cc1)C(F)(F)F)C(=O)NCC(=O)CSc1c(F)c(F)cc(F)c1F` [GD9], the IC50 in experiment [1] (setting [4]) was above 5 µM; in experiment [2] (setting [5]) it was 0.5 ± 0.05 µM; in experiment [3] (setting [6]), 5.1 ± 0.55 µM.

In the case of `NCCCC[C@H](NC(=O)[C@H](Cc1ccccc1)NC(=O)OCc1ccccc1)C(=O)CSc1c(F)c(F)cc(F)c1F` [GD10], the IC50 worked out at 0.19 ± 0.1 µM in experiment [1] (setting [4]), 0.65 ± 0.01 µM in experiment [2] (setting [5]) and 0.66 ± 0.02 µM in experiment [3] (setting [6]).

On to `Cc1cccc(C)c1C(=O)OCC(=O)[C@H](CCCCN)NC(=O)[C@H](CC(C)C)NC(=O)CNC(=O)OCc1ccccc1` [GD12], for which the IC50 in experiment [1] (setting [4]) stood at 1.6 ± 0.22 µM; in experiment [2] (setting [5]), 0.8 ± 0.1 µM; in experiment [3] (setting [6]), 1 ± 0.13 µM.

On to `Cc1cccc(C)c1C(=O)OCC(=O)[C@H](CCCCN)NC(=O)[C@@H]1CCCN1C(=O)CNC(=O)OCc1ccccc1` [GD13], for which the IC50 in experiment [1] (setting [4]) was above 5 µM; in experiment [2] (Figure 1, gel-based GB123 competition, read-out: Activity [μM] CTSK (IC50)), 3.6 ± 0.5 µM; in experiment [2] (setting [5]) it was 2.7 ± 0.35 µM; in experiment [3] (Figure 1, gel-based GB123 competition, read-out: Activity [μM] CTSB (IC50)) it was 1.95 ± 0.35 µM; in experiment [3] (setting [6]), 4 ± 0.15 µM.

With `NCCCC[C@H](NC(=O)[C@@H]1CCCN1C(=O)CNC(=O)OCc1ccccc1)C(=O)COc1c(F)c(F)cc(F)c1F` [GD14], the IC50 in experiment [1] (setting [4]) was above 5 µM; in experiment [2] (setting [5]), 0.3 ± 0.03 µM; in experiment [3] (setting [6]) it was 0.8 ± 0.25 µM.

For `NCCCC[C@H](NC(=O)[C@@H]1CCCN1C(=O)CNC(=O)OCc1ccccc1)C(=O)CSc1c(F)c(F)cc(F)c1F` [GD15], the IC50 in experiment [1] (Figure 1, gel-based GB123 competition, read-out: Activity [μM] CTSL (IC50)) is above 5 µM; in experiment [1] (setting [4]) it was 2 ± 0.15 µM; in experiment [2] (setting [5]), 5.5 ± 1 µM; in experiment [3] (setting [6]) it was above 5 µM.

For the molecule `Cc1cccc(C)c1C(=O)OCC(=O)CNC(=O)[C@@H]1CCCN1C(=O)CNC(=O)OCc1ccccc1` [GD16], the IC50 in experiment [1] (setting [4]) is above 5 µM; in experiment [2] (setting [5]) it was 1.8 ± 0.25 µM; in experiment [3] (setting [6]), 2.8 ± 0.6 µM.

As to `O=C(CNC(=O)[C@@H]1CCCN1C(=O)CNC(=O)OCc1ccccc1)CSc1c(F)c(F)cc(F)c1F` [GD17], the figures for the IC50 in experiment [1] (setting [4]), in experiment [2] (setting [5]) and in experiment [3] (setting [6]) were above 5 µM, 1.2 ± 0.11 µM and above 5 µM, respectively.

For `CC(C)C[C@H](N[C@@H](c1ccc(-c2ccc(NC(=O)OC(C)(C)C)cc2)cc1)C(F)(F)F)C(=O)NCC(=O)COC(=O)[C@@H]1CCCN1C(=O)[C@H](CC(C)C)NC(=O)OCC1c2ccccc2-c2ccccc21` [GD26], the IC50 was above 5 µM in experiment [1] (setting [4]), 1.4 ± 0.2 µM in experiment [2] (setting [5]) and 6 ± 1.5 µM in experiment [3] (setting [6]).

Take `CC(C)C[C@H](N[C@@H](c1ccc(-c2ccc(S(C)(=O)=O)cc2)cc1)C(F)(F)F)C(=O)NCC(=O)COC(=O)CNC(=O)OCC1c2ccccc2-c2ccccc21` [GD27]: the IC50 was above 5 µM in experiment [1] (setting [4]), 1 ± 0.07 µM in experiment [2] (setting [5]) and above 5 µM in experiment [3] (setting [6]).

In the case of `CC(C)C[C@H](NC(=O)OCC1c2ccccc2-c2ccccc21)C(=O)N1CCC[C@H]1C(=O)OCC(=O)CNC(=O)[C@H](CC1CCCCC1)N[C@@H](c1ccc(-c2ccc(S(C)(=O)=O)cc2)cc1)C(F)(F)F` [GD28], the IC50 in experiment [1] (setting [4]), in experiment [2] (setting [5]) and in experiment [3] (setting [6]) was above 5 µM in each case.

In the case of `CC(C)C[C@H](NC(=O)OCC1c2ccccc2-c2ccccc21)C(=O)N1CCC[C@H]1C(=O)OCC(=O)CNC(=O)[C@H](CCCCNC(=O)OC(C)(C)C)N[C@@H](c1ccc(-c2ccc(S(C)(=O)=O)cc2)cc1)C(F)(F)F` [GD29], the values for the IC50 in experiment [1] (setting [4]), in experiment [2] (setting [5]) and in experiment [3] (setting [6]) were 1.6 ± 0.5 µM, above 5 µM and above 5 µM, respectively.

As to `CC(C)C[C@H](N[C@@H](c1ccc(-c2ccc(S(=O)(=O)NC(=O)OC(C)(C)C)cc2)cc1)C(F)(F)F)C(=O)NCC(=O)COC(=O)[C@@H]1CCCN1C(=O)[C@H](CC(C)C)NC(=O)OCC1c2ccccc2-c2ccccc21` [GD31], the IC50 in experiment [1] (setting [4]) was above 20 µM; in experiment [2] (setting [5]), 0.9 ± 0.1 µM; in experiment [3] (setting [6]), 0.24 ± 0.1 µM.

Turning to `C#CCNC(=O)[C@H](CC(C)C)N[C@@H](c1ccc(-c2ccc(S(=O)(=O)NC(=O)OC(C)(C)C)cc2)cc1)C(F)(F)F` [GD33], the IC50 in experiment [1] (setting [4]) is 4.4 ± 0.8 µM; in experiment [2] (setting [5]) it was above 20 µM; in experiment [3] (setting [6]), above 20 µM.

On to `CC(C)C[C@H](N[C@@H](c1ccc(-c2ccc(CCNC(=O)OC(C)(C)C)cc2)cc1)C(F)(F)F)C(=O)NCC(=O)COC(=O)[C@@H]1CCCN1C(=O)[C@H](CC(C)C)NC(=O)OCC1c2ccccc2-c2ccccc21` [GD34], for which the IC50 in experiment [1] (setting [4]) was above 5 µM; in experiment [2] (setting [5]), 0.9 ± 0.06 µM; in experiment [3] (setting [6]) it was 5 ± 0.1 µM.

In the case of `CC(C)C[C@H](N[C@H](c1ccc(-c2ccc(S(C)(=O)=O)cc2)cc1)C(F)(F)F)C(=O)NCC(=O)COC(=O)[C@@H]1CCCN1C(=O)[C@H](CC(C)C)NC(=O)OCC1c2ccccc2-c2ccccc21` [GD35], the IC50 in experiment [2] (setting [5]) was 3.5 ± 0.5 µM. Also, the “loss of potency compared to GD20” value in experiment [2] is 4–9 times.

Take `CC(C)C[C@H](NC(=O)OCC1c2ccccc2-c2ccccc21)C(=O)N1CCC[C@H]1C(=O)OCC(=O)CNC(=O)[C@@H](CC(C)C)N[C@@H](c1ccc(-c2ccc(S(C)(=O)=O)cc2)cc1)C(F)(F)F` [GD39]: the IC50 in experiment [2] (setting [5]) worked out at 3.9 ± 0.7 µM. In experiment [2], the “loss of potency compared to GD20” value is 4–9 times.

Consider `CC(C)C[C@H](NC(=O)OCC1c2ccccc2-c2ccccc21)C(=O)N1CCC[C@H]1C(=O)OCC(=O)CNC(=O)[C@@H](CC(C)C)N[C@H](c1ccc(-c2ccc(S(C)(=O)=O)cc2)cc1)C(F)(F)F` [GD40], for which the IC50 in experiment [2] (setting [5]) came to 3.5 ± 0.9 µM. For the same molecule, the “loss of potency compared to GD20” value in experiment [2] is given as 4–9 times.

(Values after paper PMC11938014, “Development and Application of Small Molecule–Peptide Conjugates as Cathepsin K-Specific Covalent Irreversible Inhibitors in Human Osteoclast and Lung Cancer” (JACS Au, 2025).)
